Assay results as given in PubChem BioAssay AID248 (DTP/NCI, 2004).
“And” between values parts separate entries of the source, which are not always exact repeats. Identical values can stand only once. Toxic doses and inconclusive results are not listed. Cut-off read from the data, not from the text of the source: active = T/C of 150% or more; inactive = T/C below 125%.

System: L1210 leukemia ip in BDF1 mice, survival T/C
Test: NCI In Vivo Anticancer Drug Screen. Data for tumor model L1210 Leukemia (intraperitoneal) in B6D2F1 (BDF1) mice
Details: endpoint: mean survival time, higher = longer survival
Summary of the method: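 Ratio derived from survival: compound-dosed mice over vehicle-dosed mice, all bearing a transplantable tumor.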

[1] = dose: 100.0 mg/kg/injection, schedule: Q04DX003 (ip), vehicle: saline with Tween-80
[2] = dose: 200.0 mg/kg/injection, schedule: Q04DX003 (ip), vehicle: saline with Tween-80
[3] = dose: 400.0 mg/kg/injection, schedule: Q04DX003 (ip), vehicle: saline with Tween-80
[4] = dose: 100.0 mg/kg/injection, schedule: Q01DX001 (ip), vehicle: Klucel (hydroxypropylcellulose) (HPC)
[5] = dose: 100.0 mg/kg/injection, schedule: Q01DX001 (ip), vehicle: saline
[6] = dose: 200.0 mg/kg/injection, schedule: Q01DX001 (ip), vehicle: saline
[7] = dose: 400.0 mg/kg/injection, schedule: Q01DX001 (ip), vehicle: saline
[8] = dose: 100.0 mg/kg/injection, schedule: Q01DX009 (ip), vehicle: saline with Tween-80
[9] = dose: 200.0 mg/kg/injection, schedule: Q01DX009 (ip), vehicle: saline with Tween-80
[10] = dose: 400.0 mg/kg/injection, schedule: Q01DX009 (ip), vehicle: saline with Tween-80
[11] = dose: 100.0 mg/kg/injection, schedule: Q01DX009 (ip), vehicle: Klucel (hydroxypropylcellulose) (HPC)
[12] = dose: 100.0 mg/kg/injection, schedule: Q04DX003 (ip), vehicle: Klucel (hydroxypropylcellulose) (HPC)
[13] = dose: 200.0 mg/kg/injection, schedule: Q04DX003 (ip), vehicle: Klucel (hydroxypropylcellulose) (HPC)
[14] = dose: 400.0 mg/kg/injection, schedule: Q04DX003 (ip), vehicle: Klucel (hydroxypropylcellulose) (HPC)

Measured: T/C

O=C(NCCCl)Nc1cccc(C(F)(F)F)c1
inactive: [1] 104 % of control | [2] 107 % of control | [3] 113 % of control

CN(c1ccccc1)c1cc(=O)[nH]c(=O)[nH]1
inactive: [4] 95 % of control | dose: 200.0 mg/kg/injection, schedule: Q01DX001 (ip), vehicle: Klucel (hydroxypropylcellulose) (HPC) 104 % of control | dose: 400.0 mg/kg/injection, schedule: Q01DX001 (ip), vehicle: Klucel (hydroxypropylcellulose) (HPC) 99 % of control

C=CO
inactive: [5] 103 % of control | [6] 95 % of control | [7] 89 % of control

CCCCC1(CC)COC(C)(CCc2ccc(OC)cc2)OC1 (stereo not drawn)
inactive: dose: 100.0 mg/kg/injection, schedule: Q01DX001 (ip), vehicle: acetone 93 % of control | dose: 200.0 mg/kg/injection, schedule: Q01DX001 (ip), vehicle: acetone 93 % of control | dose: 400.0 mg/kg/injection, schedule: Q01DX001 (ip), vehicle: acetone 90 % of control

CCCS(=O)(=O)N1CCCC(C)C1 (stereo not drawn)
inactive: dose: 100.0 mg/kg/injection, schedule: Q04DX002 (ip), vehicle: Klucel (hydroxypropylcellulose) (HPC) 94 % of control | dose: 200.0 mg/kg/injection, schedule: Q04DX002 (ip), vehicle: Klucel (hydroxypropylcellulose) (HPC) 97 % of control | dose: 400.0 mg/kg/injection, schedule: Q04DX002 (ip), vehicle: Klucel (hydroxypropylcellulose) (HPC) 97 % of control

C/C=C1\CN(C)[C@H]2Cc3c([nH]c4ccccc34)[C@@H](c3cc4[nH]c5c(c4cc3OC)CCN3C[C@H]4C[C@H](CC)[C@H]3[C@@]5(C(=O)OC)C4)C[C@H]1C2C(=O)OC (stereo partly drawn)
inactive: dose: 30.0 mg/kg/injection, schedule: Q01DX Z (ip), vehicle: water 106 % of control | dose: 45.0 mg/kg/injection, schedule: Q01DX Z (ip), vehicle: water 100 % of control and 102 % of control | dose: 45.0 mg/kg/injection, schedule: Q02DX Z (ip), vehicle: water 101 % of control | dose: 60.0 mg/kg/injection, schedule: Q01DX Z (ip), vehicle: water 96 % of control and 101 % of control | dose: 60.0 mg/kg/injection, schedule: Q02DX Z (ip), vehicle: water 104 % of control | dose: 70.0 mg/kg/injection, schedule: Q02DX Z (ip), vehicle: water 102 % of control | dose: 75.0 mg/kg/injection, schedule: Q01DX Z (ip), vehicle: water 100 % of control | dose: 90.0 mg/kg/injection, schedule: Q01DX Z (ip), vehicle: water 100 % of control

Nc1ncnc2c1ncn2CCCCCCl
inactive: dose: 12.5 mg/kg/injection, schedule: Q04DX003 (ip), vehicle: saline 90 % of control | dose: 25.0 mg/kg/injection, schedule: Q04DX003 (ip), vehicle: saline 88 % of control | dose: 50.0 mg/kg/injection, schedule: Q04DX003 (ip), vehicle: saline 100 % of control

COc1cc(CC#N)c(OC)cc1CC#N
inactive: [8] 94 % of control | [1] 89 % of control | [9] 89 % of control | [2] 89 % of control | [10] 99 % of control | [3] 88 % of control

Cc1ccc(OS(=O)(=O)c2ccc([N+](=O)[O-])cc2)cc1
inactive: [11] 97 % of control | [12] 97 % of control | dose: 200.0 mg/kg/injection, schedule: Q01DX009 (ip), vehicle: Klucel (hydroxypropylcellulose) (HPC) 96 % of control | [13] 101 % of control | dose: 400.0 mg/kg/injection, schedule: Q01DX009 (ip), vehicle: Klucel (hydroxypropylcellulose) (HPC) 95 % of control | [14] 100 % of control

COC(=O)CCN(c1ccccc1)c1ccc(C)cc1
inactive: [8] 91 % of control | [9] 92 % of control | [10] 92 % of control

CN(C)N=Nc1cn(C2CC(O)C(CO)O2)c(=O)[nH]c1=O (stereo not drawn)
inactive: dose: 100.0 mg/kg/injection, schedule: Q01DX005 (ip), vehicle: saline 95 % of control | dose: 200.0 mg/kg/injection, schedule: Q01DX005 (ip), vehicle: saline 101 % of control

Clc1nc2ccccc2[nH]1
inactive: [5] 114 % of control | [6] 105 % of control | [7] 110 % of control

CCCCCCCCCCCCCCCCCC(=O)NCC#CCN1CCCC1
inactive: dose: 5.0 mg/kg/injection, schedule: Q01DX001 (ip), vehicle: saline 97 % of control | dose: 10.0 mg/kg/injection, schedule: Q01DX001 (ip), vehicle: saline 94 % of control | dose: 20.0 mg/kg/injection, schedule: Q01DX001 (ip), vehicle: saline 100 % of control | dose: 25.0 mg/kg/injection, schedule: Q01DX009 (ip), vehicle: Klucel (hydroxypropylcellulose) (HPC) 96 % of control | dose: 40.0 mg/kg/injection, schedule: Q01DX001 (ip), vehicle: saline 105 % of control | dose: 50.0 mg/kg/injection, schedule: Q01DX009 (ip), vehicle: Klucel (hydroxypropylcellulose) (HPC) 95 % of control | dose: 80.0 mg/kg/injection, schedule: Q01DX001 (ip), vehicle: saline 94 % of control | [11] 90 % of control | [7] 104 % of control

O=C(O)C1(C(=O)O)C=CCCC1
inactive: dose: 100.0 mg/kg/injection, schedule: Q01DX009 (ip), vehicle: saline + alcohol 89 % of control | [12] 100 % of control | dose: 200.0 mg/kg/injection, schedule: Q01DX009 (ip), vehicle: saline + alcohol 102 % of control | [13] 97 % of control | [14] 107 % of control

Nc1nc(/C=C/C=C/c2ccccc2)c(CCCCc2ccccc2)c(=O)[nH]1
inactive: dose: 25.0 mg/kg/injection, schedule: Q01DX001 (ip), vehicle: Klucel (hydroxypropylcellulose) (HPC) 94 % of control | dose: 50.0 mg/kg/injection, schedule: Q01DX001 (ip), vehicle: Klucel (hydroxypropylcellulose) (HPC) 98 % of control | [4] 96 % of control

NC1CCCCCCCC1
inactive: dose: 75.0 mg/kg/injection, schedule: Q01DX001 (ip), vehicle: acetone 95 % of control | dose: 150.0 mg/kg/injection, schedule: Q01DX001 (ip), vehicle: acetone 98 % of control

Cc1c(Cl)cccc1-n1c(C)nc2ccccc2c1=O
inactive: dose: 50.0 mg/kg/injection, schedule: Q01DX001 (ip), vehicle: carboxymethylcellulose (CMC) 93 % of control | dose: 100.0 mg/kg/injection, schedule: Q01DX001 (ip), vehicle: carboxymethylcellulose (CMC) 98 % of control | dose: 200.0 mg/kg/injection, schedule: Q01DX001 (ip), vehicle: carboxymethylcellulose (CMC) 93 % of control | dose: 400.0 mg/kg/injection, schedule: Q01DX001 (ip), vehicle: carboxymethylcellulose (CMC) 102 % of control

CCCCCCCCC(=O)CC
inactive: dose: 100.0 mg/kg/injection, schedule: Q01DX009 (ip), vehicle: saline 104 % of control | dose: 200.0 mg/kg/injection, schedule: Q01DX009 (ip), vehicle: saline 98 % of control | dose: 400.0 mg/kg/injection, schedule: Q01DX009 (ip), vehicle: saline 94 % of control

CN(C)CCCN1CCC2(CC[Si](C)(C)CC2)C1
inactive: [5] 94 % of control
